The text below walks through data of US6753337B2, “Alkynyl containing hydroxamic acid compounds as matrix metalloproteinase/tace inhibitors” (Wyeth Holdings Corporation, priority 1999, dated 2004).

Experiment [1] addresses TNF-α converting enzyme (TACE) (Homo sapiens, UniProt P78536). The experiment is described as follows: Test procedure for measuring TACE inhibition (fluorescent peptidyl substrate). The format is biochemical. On the procedure: Using 96-well black microtiter plates, each well receives a solution composed of 10 μL TACE (final concentration 1 μg/mL), 70 μL Tris buffer, pH 7.4 containing 10% glycerol (final concentration 10 mM), and 10 μL of test compound solution in DMSO (final concentration 1 μM, DMSO concentration <1%) and incubated for 10 minutes at room temperature. The reaction is initiated by addition of a fluorescent peptidyl substrate (final concentration 100 μM to each well and then shaking on a shaker for 5 sec.
The reaction is read (excitation 340 nm, emission 420 nm) for 10 min. and the increase in fluorescence over time is plotted as a linear line. The slope of the line is calculated and represents the reaction rate.
The mean (x±sem) of the control rate is calculated and compared for statistical significance (p<0.05) with drug-treated rates using Dunnett's multiple comparison test.

The subject of experiment [2] is THP-1 cells. The experiment is described as follows: Human monocytic THP-1 cell differentiation assay for soluble proteins (THP-1 soluble protein assay). Conditions: LPS-stimulated THP-1 cells, soluble protein not given. The format is cell-based. The text has this: Mitogenic stimulation of THP-1 cells cause differentiation into macrophage like cells with concomitant secretion of tumor necrosis factor (TNF-α) and TNF receptor (TNF-R p75/80 and TNF-R p55160) and Interleukin-8 (IL-8), among other proteins. In addition, non-stimulated THP-1 cells shed both the p75/80 and the p55/60 receptors over time. The release of membrane bound TNF-α and possibly TNF-R p75/80 and TNF-R p55/60, but not IL-8, is mediated by an enzyme called TNF-α converting enzyme or TACE.
THP-1 cells (from ATCC) are a human monocytic cell line which were obtained from the peripheral blood of a person with acute monocytic leukemia. They can be grown in culture and differentiated into macrophage like cells by stimulation with mitogens.
Each vial of cells are cultured for about two weeks prior to being used for an assay and then are used for only 4 to 6 weeks to screen compounds.
Cell exposure to DMSO was limited to 0.1% final concentration. […] Compounds can be evaluated for their effect on basal (non-stimulated) shedding of the receptors by replacing the LPS with […] of THP-1 media.
Plates are placed into an incubator set at 5% CO2 and at 37° C. After 4 hours of incubation, […] of tissue culture supernatant (TCS) is removed for use in an TNF-α ELISA. Following 24 hours of incubation, […] of TCS is removed and used for analysis in TNF-R p75/80, TNF-R p55160 and IL-8 ELISAs.
In addition, at the 24 hours timepoint, and the cells for each treatment group are collected by resuspension in 500 μl/well of THP-1 media and transferred into a FACS tube. […] The samples are run on a Becton Dickinson FaxCaliber FLOW cytometry machine and the amount of dye taken up by each cell is measured in the high red wavelength (FL3). Only cells with compromised membranes (dead or dying) can take up PI. The percent of live cells is calculated by the number of cells not stained with PI, divided by the total number of cells in the sample. The viability values calculated for the drug treated groups were compared to the viability value calculated for the vehicle treated mitogen stimulated group (“vehicle positive control”) to determine the “percent change from control”. This “percent change from control” value is an indicator of drug toxicity.
The quantity of soluble TNF-α, TNF-R p75/80 and TNF-R p55160 and IL-8 in the TCS of the THP-1 cell cultures are obtained with commercially available ELISAs from R&D Systems, by extrapolation from a standard curve generated with kit standards. The number of cells that either take up or exclude PI are measured by the FLOW cytometry machine and visualized by histograms using commercially available Cytologic software for each treatment group including all controls.
Biological variability in the magnitude of the response of THP-1 cell cultures requires that experiments be compared on the basis of percent change from “vehicle positive control” for each drug concentration. Percent change in each soluble protein evaluated from the “vehicle positive control” was calculated for each compound concentration with the following formula: [formula]
For the soluble protein (TNF-α, p75/80, p55/60, IL-8) studies under stimulated conditions, the mean pg/ml of duplicate wells were determined and the results expressed as percent change from “vehicle positive control”. For the soluble protein (p75/80 and p55/60 receptors) studies under non-stimulated conditions, the mean pg/ml of duplicate wells were determined and the results expressed as percent change from “vehicle positive control” utilizing the following formula: [formula]
IC50 values for each compound are calculated by non-linear regression analysis using customized software utilizing the JUMP statistical package.
For the cell viability studies, the viabilities (PI exclusion) of pooled duplicate wells were determined and the results expressed as % change from “vehicle positive control”.

pIC50: −log10 of the molar value. Where a name gives a salt, the structure may show the parent alone.

TNF-α converting enzyme (TACE), sequence (P78536 215-824): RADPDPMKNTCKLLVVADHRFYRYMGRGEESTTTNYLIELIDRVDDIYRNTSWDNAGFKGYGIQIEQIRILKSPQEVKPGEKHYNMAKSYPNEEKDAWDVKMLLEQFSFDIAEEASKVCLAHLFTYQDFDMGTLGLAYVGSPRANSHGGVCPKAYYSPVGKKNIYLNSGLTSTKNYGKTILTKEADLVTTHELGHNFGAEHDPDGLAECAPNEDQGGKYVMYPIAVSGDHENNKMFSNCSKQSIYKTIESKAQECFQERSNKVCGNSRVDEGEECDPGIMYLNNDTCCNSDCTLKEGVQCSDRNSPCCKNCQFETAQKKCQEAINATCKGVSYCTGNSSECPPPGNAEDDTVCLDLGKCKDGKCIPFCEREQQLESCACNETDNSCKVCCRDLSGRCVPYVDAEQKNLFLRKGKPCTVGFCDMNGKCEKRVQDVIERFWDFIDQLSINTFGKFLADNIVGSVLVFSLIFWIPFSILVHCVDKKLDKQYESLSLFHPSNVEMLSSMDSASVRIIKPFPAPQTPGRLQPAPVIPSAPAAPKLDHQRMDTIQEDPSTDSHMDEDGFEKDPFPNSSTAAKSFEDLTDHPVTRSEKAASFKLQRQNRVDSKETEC

`CC#CCOc1ccc(SCC2(C(=O)NO)CCNCC2)cc1` [Example 31, 4-({[4-(But-2-ynyloxy)phenyl]thio}methyl)-N-hydroxypiperidine-4-carboxamide] had a negative logarithm of the IC50 (pIC50) in experiment [1] of 6.50. In experiment [2], the inhibition at 3 µM was found to be 8%.
The matching figures for `CC#CCOc1ccc(S(=O)(=O)C2(C(=O)NO)CCN(C(=O)C(C)(CO)CO)CC2)cc1` [Example 74, 4-(4-But-2-ynyloxybenzenesulfonyl)-N-hydroxy-1-[3-hydroxy-2-(hydroxymethyl)-2-methylpropanoyl]-4-piperidinecarboxamide]: 6.88 and 39%.
`CC#CCOc1ccc(S(=O)(=O)C2(C(=O)NO)CCCN(Cc3ccc(Cl)cc3)C2)cc1` (centres unmarked) [Example 25, 3-{[4-(2-butynyloxy)phenyl]sulfonyl}-1-(4-chlorobenzyl)-N-hydroxy-3-piperidinecarboxamide] showed a pIC50 in experiment [1] of 6.16. The molecule also came in with an inhibition at 3 µM in experiment [2] of 3%.
In the case of `CC#CCOc1ccc(S(=O)(=O)C2(C(=O)NO)CCN(Cc3ccc(OCCN4CCCCC4)cc3)CC2)cc1` [Example 26, 4-{[4-(2-Butynyloxy)phenyl]sulfonyl}-1-[4-(2-piperidin-1-yl-ethoxy)-benzyl]-piperidine-4-carboxylic acid hydroxyamide], the pIC50 in experiment [1] was 6.87. This molecule also registered an inhibition at 3 µM in experiment [2] of 63%.
The like results for `C#CCOc1ccc(S(=O)(=O)C2(C(=O)NO)CCN(Cc3ccc(Br)cc3)CC2)cc1` [Example 11, 1-(4-Bromo-benzyl)-4-(4-prop-2-ynyloxy-benzenesulfonyl)-piperdine-4-carboxylic acid hydroxyamide] were, in that order, 7.01 and 7%.
The like results for `CCC#CCOc1ccc(S(=O)(=O)C2(C(=O)NO)CCN(Cc3ccc(Br)cc3)CC2)cc1` [Example 5, 1-(4-Bromo-benzyl)-4-(4-pent-2-ynyloxy-benzenesulfonyl)-piperdine-4-carboxylic acid hydroxyamide] were, in that order, 6.73 and 30%.
Turning to `CC#CCOc1ccc(S(=O)(=O)CC2(C(=O)NO)CCN(C(=O)NC(C)(C)C)CC2)cc1` [Example 38], the pIC50 in experiment [1] is 7.72. The molecule further yielded an inhibition at 3 µM in experiment [2] of 53%.
Regarding `CC#CCOc1ccc(S(=O)(=O)C2(C(=O)NO)CCN(C(CC)CC)CC2)cc1` [Example 27, 4-{[4-(2-Butynyloxy)phenyl]sulfonyl}-1-(3-pentanyl)-piperidine-4-carboxylic acid hydroxyamide], the pIC50 in experiment [1] was 6.77. The molecule further showed an inhibition at 3 µM in experiment [2] of 13%.
The like results for `CC#CCOc1ccc(S(=O)(=O)C2(C(=O)NO)CCN(Cc3ccccc3)CC2)cc1` [Example 4, 1-Benzyl-4-(4-but-2-ynyloxy-benzenesulfonyl)-piperdine-4-carboxylic acid hydroxyamide] were, in that order, 7.05 and 25%.
The matching figures for `CC#CCOc1ccc([S+]([O-])C2(C(=O)NO)CCNCC2)cc1` (centres unmarked) [Example 81, 4-(4-(But-2-ynyloxy-benzenesulfinyl)-piperidine-4-carboxylic acid hydroxamide hydrochloride]: 6.56 and 25%.
The matching figures for `CC#CCOc1ccc(S(=O)(=O)C2(C(=O)NO)CCNCC2)cc1` [Example 76, 4-{[4-(2-butynyloxy)phenyl]sulfonyl}-N-hydroxy-4-piperidinecarboxamide hydrochloride]: 6.70 and 26%.
Turning to `CC#CCOc1ccc(S(=O)(=O)C2(C(=O)NO)CCCN(CC)C2)cc1` (centres unmarked) [Example 24, 3-{[4-(2-Butynyloxy)phenyl]sulfonyl}-1-ethyl-N-hydroxy-3-piperidinecarboxamide], the pIC50 in experiment [1] is 6.74. In experiment [2], this molecule gave an inhibition at 3 µM of 41%.
The matching figures for `CC#CCOc1ccc(S(=O)(=O)C2(C(=O)NO)CCN(S(=O)(=O)C(F)(F)F)CC2)cc1` [Example 69, 4-(4-But-2-ynyloxybenzenesulfonyl)-N-hydroxy-1-[(trifluoromethyl)-sulfonyl]-4-piperidinecarboxamide]: 6.94 and 14%.
The molecule `C#CCOc1ccc(S(=O)(=O)C2(C(=O)NO)CCN(Cc3ccc(OC)cc3)CC2)cc1` [Example 28, 1-(4-Methoxy-benzyl)-4-(4-prop-2-ynyloxy-benzenesulfonyl)-piperidine-4-carboxylic acid hydroxyamide] showed a pIC50 in experiment [1] of 6.82. The same molecule registered an inhibition at 3 µM in experiment [2] of 13%.
The matching figures for `CC#CCOc1ccc(S(=O)(=O)C2(C(=O)NO)CCN(Cc3ccc(C(=O)OC)cc3)CC2)cc1` [Example 77, hydrochloride]: 6.94 and 52%.
The matching figures for `CC#CCOc1ccc(S(=O)(=O)C2(C(=O)NO)CCN(Cc3ccc(C)cc3)CC2)cc1` [Example 9, 4-(4-But-2-ynyloxy-benzenesulfonyl)-1-(4-methyl-benzyl)-piperidine-4-carboxylic acid hydroxamide]: 6.78 and 12%.
The matching figures for `CC#CCOc1ccc(S(=O)(=O)C2(C(=O)NO)CCN(S(=O)(=O)c3ccc(OC)cc3)CC2)cc1` [Example 72, 4-(4-but-2-ynyloxybenzenesulfonyl)-N-hydroxy-1-[(4-methoxyphenyl)-sulfonyl]-4-piperidinecarboxamide]: 6.66 and 56%.
Turning to `CC#CCOc1ccc(S(=O)(=O)C2(C(=O)NO)CCN(C(C)=O)CC2)cc1` [Example 64, 1-Acetyl-4-(4-but-2-ynyloxybenzenesulfonyl)piperidine-4-carboxylic acid hydroxamide], the pIC50 in experiment [1] is 7.33. Further, 3 µM produced 30% inhibition in experiment [2].
The like results for `CC#CCOc1ccc(S(=O)(=O)C2(C(=O)NO)CCN(C(=O)OCC)CC2)cc1` [Example 68, Ethyl 4-(4-but-2-ynyloxybenzenesulfonyl)-4-[(hydroxyamino)-carbonyl]-1-piperidinecarboxylate] were, in that order, 7.11 and 10%.
In experiment [1], `CC#CCOc1ccc(S(=O)(=O)C2(C(=O)NO)CCN(Cc3ccc(Br)cc3)CC2)cc1` [Example 1, 1-(4-Bromo-benzyl)-4-(4-but-2-ynyxoy-benzenesulfonyl)-piperdine-4-carboxylic acid hydroxyamide] gave a pIC50 of 7.19. For the same molecule, in experiment [2], the inhibition at 3 µM stood at 46%.
The like results for `CC#CCOc1ccc(S(=O)(=O)CC2(C(=O)NO)CCN(C(=O)C3(C)COC(C)(C)OC3)CC2)cc1` [Example 42, 4-({[4-(2-Butynyloxy)phenyl]sulfonyl}methyl)-N-hydroxy-1-[(2,2,5-trimethyl-1,3-dioxan-5-yl)carbonyl]-4-piperidinecarboxamide] were, in that order, 7.92 and 78%.
The matching figures for `CC#CCOc1ccc(S(=O)(=O)C2(C(=O)NO)CCN(C(=O)c3ccccc3)CC2)cc1` [Example 65, 1-Benzoyl-4-(4-but-2-ynyloxybenzenesulfonyl)piperidine-4-carboxylic acid hydroxamide]: 7.14 and 3%.

The term pIC50 denotes the IC50 on a negative log10 scale, so that one unit is a factor of ten. Lower therefore signals a high IC50. The term inhibition denotes the share of the control response that was lost under treatment. A lower inhibition goes with little suppression.
